{"source": "patent US11912734B2", "about": "“Solid-phase synthesis of oligonucleotides containing N6-(2-deoxy-alpha,beta-derythropentofuranosyl)-2,6-diamino-4-hydroxy-5-formamidopyrimidine (Fapy⋅dG)” (The Johns Hopkins University, priority 2020, dated 2024)", "origin": "cited, not measured here", "key": {"hOGG1": {"target": "hOGG1 (Homo sapiens, UniProt O15527)", "sequence (O15527 whole entry)": "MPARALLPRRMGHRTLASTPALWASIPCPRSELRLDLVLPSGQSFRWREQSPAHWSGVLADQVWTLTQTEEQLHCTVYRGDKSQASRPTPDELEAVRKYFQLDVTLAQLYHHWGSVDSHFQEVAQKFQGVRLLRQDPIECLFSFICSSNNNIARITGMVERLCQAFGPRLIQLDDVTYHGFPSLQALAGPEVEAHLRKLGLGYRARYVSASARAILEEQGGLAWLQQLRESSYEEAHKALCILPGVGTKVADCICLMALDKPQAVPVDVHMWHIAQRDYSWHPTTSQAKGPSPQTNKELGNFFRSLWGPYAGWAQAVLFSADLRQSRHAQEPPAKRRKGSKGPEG", "conditions": "dC versus dA opposite the lesion"}, "MutY": {"target": "MutY (Escherichia coli, UniProt P17802)", "sequence (P17802 whole entry)": "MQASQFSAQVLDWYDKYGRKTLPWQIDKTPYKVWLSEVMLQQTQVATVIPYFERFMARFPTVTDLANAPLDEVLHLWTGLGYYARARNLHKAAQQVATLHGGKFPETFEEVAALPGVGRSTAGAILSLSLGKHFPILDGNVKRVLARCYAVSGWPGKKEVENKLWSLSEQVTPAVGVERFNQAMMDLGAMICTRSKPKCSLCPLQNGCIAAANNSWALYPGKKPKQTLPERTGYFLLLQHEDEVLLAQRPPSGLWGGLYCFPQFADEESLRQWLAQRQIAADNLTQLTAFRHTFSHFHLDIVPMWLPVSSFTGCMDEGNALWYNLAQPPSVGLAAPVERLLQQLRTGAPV", "conditions": "relative to 8-OxodGuo:dA duplex; more rapid than from a dG:dA mispair"}, "Fpg": {"target": "Fpg (Escherichia coli, UniProt P05523)", "sequence (P05523 whole entry)": "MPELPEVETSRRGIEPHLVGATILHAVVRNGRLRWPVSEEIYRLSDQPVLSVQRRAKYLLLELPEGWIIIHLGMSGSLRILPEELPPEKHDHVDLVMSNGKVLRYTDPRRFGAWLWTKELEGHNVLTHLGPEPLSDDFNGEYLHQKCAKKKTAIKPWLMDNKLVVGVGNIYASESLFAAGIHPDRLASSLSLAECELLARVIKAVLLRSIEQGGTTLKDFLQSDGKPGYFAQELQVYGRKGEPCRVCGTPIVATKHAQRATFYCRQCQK", "conditions": "Fapy·dG:dC versus Fapy·dG:dA"}}, "data": [{"smiles": "Nc1nc(O)c(NC=O)c(NC2C[C@H](O)[C@@H](CO)O2)n1", "note": "(stereo partly drawn) [Fapy·dG, N6-(2-Deoxy-α,β-D-erythropentofuranosyl)-2,6-diamino-4-hydroxy-5-formamidopyrimidine]", "values": [{"measurement": "discrimination against a Fapy·dG:dA base pair", "setting": "hOGG1", "value": "more than 40 fold"}, {"measurement": "incision of mismatched dA opposite Fapy·dG, more slowly than from a duplex containing 8-OxodGuo:dA", "setting": "MutY", "value": 4, "unit": "fold"}, {"measurement": "efficiency of glycosidic bond hydrolysis of the lesion in a Fapy·dG:dC base pair relative to opposite dA", "setting": "Fpg", "value": "~20", "unit": "times"}]}]}
